From PubChem BioAssay AID1259407 (Chemical Carcinogenesis Research Information System (CCRIS), 2018) come the findings set out here.

Molecules are shown by their SMILES. Activity calls are given as the source filed them. How the calls were made is not given here.

This data set relates to CCRIS mutagenicity, Ames/micronucleus/aberration tests. Briefly: CCRIS mutagenicity studies.
Where [1] appears, read: Test System: AMES SALMONELLA TYPHIMURIUM, Strain/Indicator: TA98, Metabolic Activation: NONE, Method: STANDARD PLATE.
[2] abbreviates: Test System: AMES SALMONELLA TYPHIMURIUM, Strain/Indicator: TA100, Metabolic Activation: NONE, Method: STANDARD PLATE.
[3] abbreviates: Test System: AMES SALMONELLA TYPHIMURIUM, Strain/Indicator: TA102, Metabolic Activation: NONE, Method: STANDARD PLATE.
Setting [4] is: Test System: AMES SALMONELLA TYPHIMURIUM, Strain/Indicator: TA98, Metabolic Activation: NONE, Method: PREINCUBATION

Take `C[N+]1(C)CCOCC1`: the mutagenic call is “inactive; negative” (Test System: AMES SALMONELLA TYPHIMURIUM, Strain/Indicator: TA97, Metabolic Activation: NONE, Method: STANDARD PLATE); “inactive; negative” (Test System: AMES SALMONELLA TYPHIMURIUM, Strain/Indicator: TA97, Metabolic Activation: RAT, LIVER, S-9, AROCLOR 1254, Method: STANDARD PLATE); “inactive; negative” under setting [1]; “inactive; negative” (Test System: AMES SALMONELLA TYPHIMURIUM, Strain/Indicator: TA98, Metabolic Activation: RAT, LIVER, S-9, AROCLOR 1254, Method: STANDARD PLATE); “inactive; negative” under setting [2]; “inactive; negative” (Test System: AMES SALMONELLA TYPHIMURIUM, Strain/Indicator: TA100, Metabolic Activation: RAT, LIVER, S-9, AROCLOR 1254, Method: STANDARD PLATE). The mutagenic call under setting [3] is “inactive; negative”; the mutagenic call (Test System: AMES SALMONELLA TYPHIMURIUM, Strain/Indicator: TA102, Metabolic Activation: RAT, LIVER, S-9, AROCLOR 1254, Method: STANDARD PLATE) was “inactive; negative”; the mutagenic call (Test System: AMES SALMONELLA TYPHIMURIUM, Strain/Indicator: TA104, Metabolic Activation: NONE, Method: STANDARD PLATE) is “inactive; negative”; the mutagenic call (Test System: AMES SALMONELLA TYPHIMURIUM, Strain/Indicator: TA104, Metabolic Activation: RAT, LIVER, S-9, AROCLOR 1254, Method: STANDARD PLATE) was “inactive; negative”; the mutagenic call (Test System: AMES SALMONELLA TYPHIMURIUM, Strain/Indicator: TA1535, Metabolic Activation: NONE, Method: STANDARD PLATE) was “inactive; negative”; the mutagenic call (Test System: AMES SALMONELLA TYPHIMURIUM, Strain/Indicator: TA1535, Metabolic Activation: RAT, LIVER, S-9, AROCLOR 1254, Method: STANDARD PLATE) was “inactive; negative”. The mutagenic call is “inactive; negative” (Test System: AMES SALMONELLA TYPHIMURIUM, Strain/Indicator: TA1537, Metabolic Activation: NONE, Method: STANDARD PLATE); “inactive; negative” (Test System: AMES SALMONELLA TYPHIMURIUM, Strain/Indicator: TA1537, Metabolic Activation: RAT, LIVER, S-9, AROCLOR 1254, Method: STANDARD PLATE); “inactive; negative” (Test System: AMES SALMONELLA TYPHIMURIUM, Strain/Indicator: TA1538, Metabolic Activation: NONE, Method: STANDARD PLATE); “inactive; negative” (Test System: AMES SALMONELLA TYPHIMURIUM, Strain/Indicator: TA1538, Metabolic Activation: RAT, LIVER, S-9, AROCLOR 1254, Method: STANDARD PLATE).
`O=[N+]([O-])c1cc(Cl)cc(Cl)c1O`: the mutagenic call by setting is: under setting [4], “inactive; negative”; under setting [1], “inactive; negative”; (Test System: AMES SALMONELLA TYPHIMURIUM, Strain/Indicator: TA100, Metabolic Activation: NONE, Method: PREINCUBATION) “inactive; negative”; under setting [2], “inactive; negative”; (Test System: CHINESE HAMSTER V-79, Strain/Indicator: V-79/6-THIOGUANINE, Metabolic Activation: NONE) “inactive; negative”.
For the compound `O=[N+]([O-])c1ccc(-c2ccccc2)c([N+](=O)[O-])c1`, the mutagenic call under setting [4] is “active; positive” and the mutagenic call (Test System: AMES SALMONELLA TYPHIMURIUM, Strain/Indicator: TA98, Metabolic Activation: RAT, LIVER, S-9, PCB (10%), Method: PREINCUBATION) was “active; positive”.
As to `CCN(CC)CCOc1ccc(C(=C(Cl)c2ccccc2)c2ccccc2)cc1`, the mutagenic call is “inactive; negative” under setting [4]; “active; positive” (Test System: AMES SALMONELLA TYPHIMURIUM, Strain/Indicator: TA98, Metabolic Activation: RAT LIVER S-9, 3-METHYLCHOLANTHRENE, Method: PREINCUBATION); “active; positive” (Test System: AMES SALMONELLA TYPHIMURIUM, Strain/Indicator: TA98, Metabolic Activation: RAT LIVER S-9, AROCLOR 1254, Method: PREINCUBATION); “active; positive” (Test System: AMES SALMONELLA TYPHIMURIUM, Strain/Indicator: TA98, Metabolic Activation: RAT LIVER S-9, PHENOBARBITAL, Method: PREINCUBATION); “active; positive” (Test System: AMES SALMONELLA TYPHIMURIUM, Strain/Indicator: TA98, Metabolic Activation: RAT LIVER S-9, STREPTOZOCINE, Method: PREINCUBATION).
In the case of `c1ccc(COC[C@H]2CO2)cc1`, the mutagenic call under setting [2] was “active; positive”.
Turning to `O=C(OCC1CCC2OC2C1)C1CCC2OC2C1` (stereo not given), the mutagenic call is “inactive; negative” (Test System: AMES SALMONELLA TYPHIMURIUM, Strain/Indicator: TA97A, Metabolic Activation: NONE, Method: STANDARD PLATE); “inactive; negative” (Test System: AMES SALMONELLA TYPHIMURIUM, Strain/Indicator: TA97A, Metabolic Activation: RAT LIVER S-9, PHENOBARBITAL AND BETA-NAPHTHOFLAVONE (10%), Method: STANDARD PLATE); “inactive; negative” under setting [1]; “inactive; negative” (Test System: AMES SALMONELLA TYPHIMURIUM, Strain/Indicator: TA98, Metabolic Activation: RAT LIVER S-9, PHENOBARBITAL AND BETA-NAPHTHOFLAVONE (10%), Method: STANDARD PLATE); “inactive; negative” under setting [2]; “active; positive” (Test System: AMES SALMONELLA TYPHIMURIUM, Strain/Indicator: TA100, Metabolic Activation: RAT LIVER S-9, PHENOBARBITAL AND BETA-NAPHTHOFLAVONE (10%), Method: STANDARD PLATE). Further, the mutagenic call is “inactive; negative” under setting [3] and “inactive; negative” (Test System: AMES SALMONELLA TYPHIMURIUM, Strain/Indicator: TA102, Metabolic Activation: RAT LIVER S-9, PHENOBARBITAL AND BETA-NAPHTHOFLAVONE (10%), Method: STANDARD PLATE).
As for `CCc1cc(-c2ccccc2)ccc1N`, the mutagenic call is, setting by setting: under setting [1], “inactive; negative”; (Test System: AMES SALMONELLA TYPHIMURIUM, Strain/Indicator: TA98, Metabolic Activation: RAT LIVER S-9, AROCLOR, Method: STANDARD PLATE) “active; positive”; under setting [2], “active; positive”; (Test System: AMES SALMONELLA TYPHIMURIUM, Strain/Indicator: TA100, Metabolic Activation: RAT LIVER S-9, AROCLOR, Method: STANDARD PLATE) “active; positive”.
Turning to `O=CC(Cl)=C(Cl)Cl`, the mutagenic call under setting [1] is “active; positive” and the mutagenic call under setting [2] is “active; positive”.
Turning to `Nc1ccc2nc3c(N)cccc3nc2c1`, the mutagenic call under setting [4] is “inactive; negative” and the mutagenic call (Test System: AMES SALMONELLA TYPHIMURIUM, Strain/Indicator: TA98, Metabolic Activation: RAT, LIVER, S-9, PCB, Method: PREINCUBATION) was “active; positive”.
